From US10711005B2, “Compound I and compound II as well as preparation methods therefor and application thereof” (SHENZHEN UNIVERSITY, priority 2015, dated 2020)

Legend:
[1] = test system: spleen lymphocytes; experiment: Lymphocyte proliferation experiment (CCK8); assay type: cell-based, mice; conditions: 24 hours; for proliferation of the lymphocytes: CCK8, FIG. 4
Method: The activation and proliferation abilities of T7-EA on the lymphocytes are detected. The mice are broken the neck to death and soaked in 75% ethanol, and then placed on the super-clean bench for taking the spleen out with a sterile operation. The spleen is grinded in the 35 mm culture dish containing 4-5 ml murine lymphocyte separating medium. Then obtained cell suspension is transferred to the 15 ml centrifuge tube in which 500 μl RPMI-1640 is gently added along the tube wall for enclosure. After that the centrifuge tube is centrifuged for 30 minutes at 800 G. Then the centrifuged layer containing the lymphocytes is further centrifuged at 250 G for 10 minutes in a centrifuge tube containing 10 ml culture medium. The supernatant is discarded and the cell pellet is dissipated by the culture medium and counted. The spleen leukomonocytes are deposited on the 96-well plate with a cell density of 2×10^5/each well. T7-EA with corresponding concentrations (0, 0.001, 0.01, 0.1, 1, 2, 4, 8, 16, 20, 24 μmol/L) is added onto the 96-well plate and incubated for 24 hours in the cell culture box of 5% CO2 and saturated humidity at 37° C. The effect of the T7-EA on the proliferation of the lymphocytes is detected by CCK8 after the 24 hours incubation according to the operation manual of the CCK8 kits, and the results are shown in FIG. 4. […] When the T7-EA has a concentration of 4 μmol/L, the relative proliferation rate is about 50%.

[2] = test system: murine melanoma cell line B16f10; experiment: Anti tumor experiment of T7-EA in vivo (melanoma-bearing mice); set-up: species or system BALB/c mice; conditions: T7-EA 10 mg/Kg once every three days for 2 weeks; vs control group, T7 group and EA group (P<0.01), FIG. 5
From the text: The used materials comprise animal and cell strain BALB/c mice, female, 5-6 weeks old, provided by the Guangdong Medical Laboratory Animal Center; and murine melanoma cell line B16f10 purchased from Shanghai ATCC Cell Bank.
24 4-5 weeks old female BALB/c mice are loaded with 5×10^5 tumor cells/each one after 1 weeks of quarantine at SPF level in an animal room. The mice bearing tumors are randomly divided into 75% ethanol control group, T7 group, EA group and T7-EA group, when the diameter of the tumor reaches 5 mm. The corresponding drugs are given to each group with a dosage of T7-EA 10 mg/Kg, T7 5 mg/kg, EA 12.5 mg/kg once every three days for 2 weeks. During the treatment, the tumor growth is observed by measuring the tumor size every three days. The tumor surface area is calculated according to the following formula: S=tab (wherein a represents the long diameter, while b represents the short diameter). The 24 mice are loaded with 5×10^5 tumor cells/each one after 7 days of quarantine at SPF level in an animal room. The mice bearing tumors are randomly divided into 75% ethanol control group, T7 group, EA group and T7-EA group, when the diameter of the tumor reaches 5 mm. The corresponding drugs are given to each group once every three days for 2 weeks, and the tumor size is measured every three days.

[3] = test system: spleen lymphocytes; experiment: ELISA detection of IFN-γ and IL-12 after stimulation of spleen lymphocytes in vitro by T7-EA; assay type: cell-based, mice; conditions: 24 hours, FIGS. 3A-3B
Method: The mice are broken the neck to death and soaked in 75% ethanol for 5 minutes, and then placed on the super-clean bench for taking the spleen out with a sterile operation. The spleen is grinded in the 35 mm culture dish containing 4-5 ml murine lymphocyte separating medium. Then obtained cell suspension is transferred to the 15 ml centrifuge tube in which 500 μl RPMI-1640 is gently added along the tube wall for enclosure. After that the centrifuge tube is centrifuged for 30 minutes at 800 G. Then the centrifuged layer containing the lymphocytes is further centrifuged at 250 G for 10 minutes in a centrifuge tube containing 10 ml culture medium. The supernatant is discarded and the cell pellet is dissipated by the culture medium and counted. The spleen leukomonocytes are deposited on the 24-well plate with a cell density of 1×10^6/ml. T7-EA with corresponding concentrations (0, 0.001, 0.01, 0.1, 1, 2, 4, 8, 16, 20, 24 μmol/L) is added into each well and incubated for 24 hours in the cell culture box of 5% CO2 and saturated humidity at 37° C. The supernatant is collected on the second day and tested according to the operation manual of the ELISA kit. The supernatants are collected after stimulating the spleen lymphocytes with T7-EA of different concentrations for 24 hours, and the ELISA test results are shown in FIGS. 3A-3B.

[4] = test system: spleen lymphocytes; experiment: ELISA detection of cytokines IFN-γ and IL-12 generated by spleen lymphocytes after stimulation of T7-EA; assay type: cell-based, mice; conditions: 24 hours
Method: (§1) The mice are broken the neck to death and soaked in 75% ethanol, and then placed on the super-clean bench for taking the spleen out with a sterile operation. The spleen is grinded in the 35 mm culture dish containing 4-5 ml Mouse1×lymphocyte separating medium. Then separating medium suspended with spleen cells is transferred to the 15 ml centrifuge tube and enclosed with 500 μl RPMI-1640, After that the centrifuge tube is centrifuged at room temperature for 30 minutes at 800 G. Then the middle buffy coat is placed into a centrifuge tube containing 10 ml culture medium for being overthrown and washed. After that, the centrifuge tube is further centrifuged at 250 G for 10 minutes at room temperature. The supernatant is discarded and the cell pellet is dissipated by the culture medium and counted. The spleen leukomonocytes are deposited on the 24-well plate with a final cell density of 1×10^6/ml. T7-EA with corresponding concentrations (0, 0.01, 0.1, 0.5, 1, 2, 4, 8, 16, 20, 24 μmol/L) is added and incubated for 24 hours in the cell culture box. The supernatant is collected on the second day and tested according to the operation manual of the ELISA kit. […] When the T7-EA has a concentration ≤4 μmol/L, better effects can be obtained. Accordingly, 4 μmol/L is the effective concentration of the T7-EA.

[5] = test system: protein of mammary cancer 4T1 cells; experiment: Whole-cell antibody detection (serum IgG ELISA); assay type: in vivo, mice; conditions: blood collected sixth day after each of 4 immunotherapies, FIG. 12
Method: The protein of mammary cancer 4T1 cells is extracted and the concentration of which is also measured in accordance with the operation manual of the BCA protein quantitative kits. The extracted protein is used as the envelope antigen. The venous blood of mice is collected sixth days after each immunotherapy, and its supernatant is collected for 4 times. The serum antibody is measured in accordance with the operation manual of the ELISA kit.

[6] = test system: spleen lymphocytes; experiment: ELISA detection of cytokines IFN-γ and IL-12 generated by spleen lymphocytes after stimulation of T7-EA-ROR1; assay type: cell-based, murine; conditions: final T7-EA concentration 4 μmol/L, T7-EA:ROR1 molar ratio 1:1, FIGS. 10A-10B
Method: as §1, with “T7-EA. […]” for “T7-EA.”

[7] = test system: B16f10 melanoma cells; experiment: CTL experiment (LDH method), spleen lymphocytes of treated mice against B16f10; assay type: in vivo; conditions: effector:target 50:1, 4 hours, after two weeks of administration; vs control, T7 and EA groups (P<0.05), FIG. 6
Method: The activity of cytotoxic T lymphocyte (CTL) is determined by the method of Lactic dehydrogenase (LDH) with CytoTox96Promega kits. The mice in the experimental group are broken the neck to death. The spleen lymphocytes are taken as the effector cells while the B16f10 melanoma cells are used as the target cells. The effector cells and the target cells are mixed up with a ratio of 50:1 and cultured for 4 hours. The specific operation steps can be implemented according to the operation manual, while the kill rate can calculated as follows: the killing rate (%)=(OD value of the experimental group−pontaneous OD value of the effector cells−pontaneous OD value of the target cells)/(Maximum OD value of the target cells−pontaneous OD value of the target cells)×100%. The mice in the experimental group are broken the neck to death after two weeks of administration. The spleen lymphocytes are taken as the effector cells while the B16f10 melanoma cells are used as the target cells. The effector cells and the target cells are spread onto 96-well U-shape plate according to a ratio of 50:1 and cultured together for 4 hours.

[8] = test system: dendritic cells derived from bone marrow cells; conditions: in vitro; cited from earlier work
[9] = test system: lymphocyte; conditions: cited from earlier work
[10] = higher concentration (>4 μmol/L)
[11] = lower concentration (≤4 μmol/L)

Row | SMILES | relative proliferation rate ([1]; concentration of 4 μmol/L) | lethal effect on the lymphocytes ([1]; higher concentration (>4 μmol/L), CCK8) | proliferation of the lymphocytes [1, 10] | proliferation of the lymphocytes [1, 11] | growth of the tumor (tumor surface area) [2] | ability for activating lymphocytes (generation of IFN-γ and IL-12) [3, 10] | ability for activating lymphocytes (generation of IFN-γ and IL-12) [3, 11] | generation of cytokines IFN-γ and IL-12 by lymphocytes ([4]; 0-24 μmol/L, FIGS. 8A-8B) | effective concentration of the T7-EA ([4]; IFN-γ and IL-12 induction) | level of IgG antibody in the mice sera [5] | generation of cytokines IFN-γ and IL-12 by spleen lymphocytes [6] | immune killing effect (CTL killing rate) [7] | production of inflammatory mediators TNF-a and IL-12 [8] | production of inflammatory mediators IFN-γ and IL-12 [9]
1 | C=C(CC)C(=O)c1ccc(OCC(=O)NCc2ccc(Cn3c(O)nc4c(N)nc(OCCOC)nc43)cc2)c(Cl)c1Cl [T7-EA] | about 50% | no lethal effect on the lymphocytes | no effect on the proliferation of the lymphocytes | can promote the proliferation of the lymphocytes | significantly inhibited the growth of the tumor | decreased ability for activating lymphocytes | stronger ability for activating lymphocytes | can activate the lymphocytes and induce the lymphocytes to generate cytokines IFN-γ and IL-12 | 4 µmol/L | increases gradually with the increase of immunization times | can induce the spleen lymphocytes to generate cytokines IFN-γ and IL-12 | stronger immune killing effect on melanoma |  | 
2 | COCCOc1nc(N)c2nc(O)n(Cc3ccc(CN)cc3)c2n1 [T7] |  |  |  |  |  |  |  |  |  |  |  |  | inflammatory mediators, such as TNF-a and IL-12 can be produced rapidly | inflammatory mediators, such as IFN-γ and IL-12 can also be produced rapidly
